Read-outs that look alike come from different tables or passages of the source.
Key:
[1] = molecular target: kappa opioid receptors (KOR) (Homo sapiens, UniProt P41145); assay: PDSP radioligand binding at KOR; details: for inhibition at 10 µM: 1.5 h
Description: Opioid receptors are a family of inhibitory G-coupled protein receptors where opioids act as the ligand. The kappa opioid receptors (KOR), µ and δ opioid receptors (MOR and DOR), and nociception opioid receptor (NOP) fall under the family of opioids receptors. It has been reported that oxadiazole imidazodiazepines can mediate analgesic and anti-inflammatory properties mediated also by the κ opioid receptor (KOR). The binding at KOR is usually silent. The affinities of the test compounds for KOR, DOR, and MOR were determined using radioligand binding assays at a screening concentration of 10,000 nM in collaboration with the National Institute of Mental Health’s Psychoactive Drug Screening Program (PDSP), as mentioned before. Concentration-dependent experiments were conducted to determine Ki values for the compounds that exceeded more than 50% radioligand displacement in primary binding assays.
(§1) The NIMH PDSP assay protocol book [https://kidbdev.med.unc.edu/databases/PDSP%20Protocols%20II%202013-03-28.pdf accessed on 23 April 2023]. describes the protocols for primary and secondary radio-ligand binding assays. These assays were carried out in a final volume of 125 µL per well in the appropriate binding buffer.
(§2) The binding of a ligand to a receptor, ion channel, or transporter was determined in the […] of 10 µM of the appropriate reference compound. […] Plates were incubated in the dark for 90 min at rt, and the reactions were stopped by vacuum filtration onto 0.3% polyethyleneimine (PEI) soaked 96-well filter mats using a 96-well Filtermateharvester. This was followed by three washes with cold PBS buffer. Radioactivity was then counted on a Microbeta counter. Nonlinear regression was used to analyze the data with N = 6 replicates.

[2] = molecular target: T1, 5-HT7A (Homo sapiens, UniProt P34969); assay: PDSP primary binding 5-HT7A; details: 1.5 h; primary binding, 10,000 nM; last figure of the line = mean of the 4 before it; read-out: 5-HT7A, PDSP raw data, mean
T1 construct: purchased NIMH Psychoactive Drug Screening Program (PDSP)
T1 sequence (P34969 1-445 isoform P34969-2): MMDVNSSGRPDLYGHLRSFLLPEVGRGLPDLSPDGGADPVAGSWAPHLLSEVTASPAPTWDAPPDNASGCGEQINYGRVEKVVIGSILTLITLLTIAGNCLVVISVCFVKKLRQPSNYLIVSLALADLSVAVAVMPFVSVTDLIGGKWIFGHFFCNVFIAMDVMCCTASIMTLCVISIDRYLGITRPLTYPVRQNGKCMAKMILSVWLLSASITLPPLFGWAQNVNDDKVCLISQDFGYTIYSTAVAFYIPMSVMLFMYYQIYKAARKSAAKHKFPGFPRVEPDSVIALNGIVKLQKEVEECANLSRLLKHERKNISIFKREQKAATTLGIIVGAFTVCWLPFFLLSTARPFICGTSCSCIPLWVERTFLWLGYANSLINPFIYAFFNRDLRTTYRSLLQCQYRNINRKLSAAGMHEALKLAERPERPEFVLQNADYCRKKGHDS
Procedure: (§3) To determine if any off-target receptor-binding effects are present, all the novel ligands were sent to the National Institute of Mental Health (NIMH), Psychoactive Drug Screening Program (PDSP). The ligands were screened over a panel of 47 receptors, ion channels, and transporters to determine any other possible interactions with […]. The hERG-binding was also determined. […] No binding of the test compounds to calcium channels was observed. […] It is necessary to screen the compounds for hERG-binding during the early process of drug discovery. The unintentional binding of many drugs to hERG can cause blockade of hERG K+ channels in the heart, which can cause many side effects including cardiac arrhythmias and sudden death. […] All of the α5 imidazodiazepines were tested for hERG-binding.
as §1, §2

[3] = molecular target: T2, Alpha2C (Homo sapiens, UniProt P18825); assay: PDSP primary binding Alpha2C; details: 1.5 h; primary binding, 10,000 nM; last figure of the line = mean of the 4 before it; read-out: Alpha2C, PDSP raw data, mean
T2 construct: purchased NIMH Psychoactive Drug Screening Program (PDSP)
T2 sequence (P18825 1-462): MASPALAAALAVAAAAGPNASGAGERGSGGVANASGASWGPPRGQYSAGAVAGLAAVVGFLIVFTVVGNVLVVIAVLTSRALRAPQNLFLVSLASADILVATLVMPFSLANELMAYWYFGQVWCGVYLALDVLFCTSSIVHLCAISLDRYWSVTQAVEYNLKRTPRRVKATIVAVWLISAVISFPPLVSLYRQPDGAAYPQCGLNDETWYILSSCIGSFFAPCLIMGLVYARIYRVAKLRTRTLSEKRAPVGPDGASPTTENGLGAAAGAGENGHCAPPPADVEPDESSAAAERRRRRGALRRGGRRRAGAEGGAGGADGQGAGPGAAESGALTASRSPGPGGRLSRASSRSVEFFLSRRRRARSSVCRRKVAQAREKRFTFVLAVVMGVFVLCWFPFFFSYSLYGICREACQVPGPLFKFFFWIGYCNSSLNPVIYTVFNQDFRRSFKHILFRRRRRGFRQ
Procedure: as §3, §1, §2

[4] = molecular target: T3, M4 D (Homo sapiens, UniProt P08173, A203G/Y113C); assay: PDSP primary binding M4 D; details: primary binding, 10,000 nM; last figure of the line = mean of the 4 before it; read-out: M4 D, PDSP raw data, mean
T3 construct: purchased NIMH Psychoactive Drug Screening Program (PDSP)
T3 sequence (P08173 1-479 Y113C/A203G): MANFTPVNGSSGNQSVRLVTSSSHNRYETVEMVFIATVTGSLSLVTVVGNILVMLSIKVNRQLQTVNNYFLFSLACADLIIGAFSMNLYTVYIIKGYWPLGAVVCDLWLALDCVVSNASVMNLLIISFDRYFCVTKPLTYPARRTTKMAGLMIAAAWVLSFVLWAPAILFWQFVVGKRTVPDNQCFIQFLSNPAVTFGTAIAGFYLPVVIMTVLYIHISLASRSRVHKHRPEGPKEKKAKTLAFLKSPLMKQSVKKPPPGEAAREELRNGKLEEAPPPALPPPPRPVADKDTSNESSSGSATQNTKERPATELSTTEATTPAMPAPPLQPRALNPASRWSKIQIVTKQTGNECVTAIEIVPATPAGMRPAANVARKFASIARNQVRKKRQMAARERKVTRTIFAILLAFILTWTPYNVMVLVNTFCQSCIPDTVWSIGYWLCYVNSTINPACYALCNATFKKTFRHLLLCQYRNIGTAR
Procedure: as §3, §1, §2

[5] = molecular target: T4, Alpha4Beta2 (Rattus norvegicus, UniProt P09483+P12390); assay: PDSP primary binding Alpha4Beta2; details: primary binding, 10,000 nM; last figure of the line = mean of the 4 before it; read-out: Alpha4Beta2, PDSP raw data, mean
T4 construct: purchased NIMH Psychoactive Drug Screening Program (PDSP)
T4 sequence (P09483 31-630): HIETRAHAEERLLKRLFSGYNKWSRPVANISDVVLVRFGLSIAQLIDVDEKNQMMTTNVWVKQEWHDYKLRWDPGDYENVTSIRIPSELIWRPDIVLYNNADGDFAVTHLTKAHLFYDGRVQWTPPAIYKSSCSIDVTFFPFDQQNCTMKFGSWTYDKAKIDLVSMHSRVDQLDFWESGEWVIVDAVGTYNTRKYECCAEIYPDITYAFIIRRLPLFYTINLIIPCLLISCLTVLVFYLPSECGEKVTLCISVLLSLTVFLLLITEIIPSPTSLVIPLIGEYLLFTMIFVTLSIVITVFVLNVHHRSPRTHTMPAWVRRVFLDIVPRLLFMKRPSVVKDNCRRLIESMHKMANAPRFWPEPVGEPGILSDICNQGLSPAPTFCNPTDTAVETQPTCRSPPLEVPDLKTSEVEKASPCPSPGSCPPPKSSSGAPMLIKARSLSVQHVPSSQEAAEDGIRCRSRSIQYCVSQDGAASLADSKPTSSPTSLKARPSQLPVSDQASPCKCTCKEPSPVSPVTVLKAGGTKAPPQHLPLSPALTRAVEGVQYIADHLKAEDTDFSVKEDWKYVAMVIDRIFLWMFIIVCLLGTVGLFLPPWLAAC
T4 sequence (P12390 25-500): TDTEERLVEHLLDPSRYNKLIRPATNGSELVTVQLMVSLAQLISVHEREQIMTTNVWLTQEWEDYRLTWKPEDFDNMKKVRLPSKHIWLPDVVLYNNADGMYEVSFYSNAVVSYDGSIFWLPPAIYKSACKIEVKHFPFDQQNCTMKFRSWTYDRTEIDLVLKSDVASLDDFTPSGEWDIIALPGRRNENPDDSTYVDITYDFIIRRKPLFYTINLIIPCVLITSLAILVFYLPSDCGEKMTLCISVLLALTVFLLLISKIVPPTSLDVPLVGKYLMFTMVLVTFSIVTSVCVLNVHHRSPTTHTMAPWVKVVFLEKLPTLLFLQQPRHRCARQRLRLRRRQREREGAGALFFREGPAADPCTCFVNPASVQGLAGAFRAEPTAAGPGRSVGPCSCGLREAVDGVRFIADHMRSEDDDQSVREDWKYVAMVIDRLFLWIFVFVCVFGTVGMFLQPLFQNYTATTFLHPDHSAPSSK
Procedure: as §3, §1, §2

[6] = at 10,000 nM, N = 5, [3H]-U69593 0.83 nM, read-out: Primary Binding %KOR
[7] = primary binding, 10,000 nM, last figure of the line = mean of the 4 before it, read-out: KOR, PDSP raw data, mean

kappa opioid receptors (KOR), sequence (P41145 whole entry): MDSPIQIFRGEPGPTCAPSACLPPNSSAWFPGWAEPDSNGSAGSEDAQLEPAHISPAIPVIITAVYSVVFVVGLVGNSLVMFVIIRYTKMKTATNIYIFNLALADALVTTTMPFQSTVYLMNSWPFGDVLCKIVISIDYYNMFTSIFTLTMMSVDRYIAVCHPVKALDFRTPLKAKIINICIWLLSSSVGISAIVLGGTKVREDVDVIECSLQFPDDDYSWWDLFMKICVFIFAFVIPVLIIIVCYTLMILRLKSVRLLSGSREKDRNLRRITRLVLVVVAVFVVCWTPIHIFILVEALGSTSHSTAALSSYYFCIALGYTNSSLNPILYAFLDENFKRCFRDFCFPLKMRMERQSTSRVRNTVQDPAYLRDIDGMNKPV

Row | Compound | inhibition at 10 µM [1, 6] | inhibition at 10 µM [1, 7] | Ki ([1]; secondary screening, N = 2, read-out: KOR (Ki)) | inhibition at 10 µM [2] | inhibition at 10 µM [3] | inhibition at 10 µM [4] | inhibition at 10 µM [5] | Ki [1]
1 | C[C@H]1N=C(c2ccccc2F)c2cc(-c3ccccc3)ccc2-n2cnc(C(=O)N(C)C)c21 [Compound 5, (R)-6-(2′-Fluorophenyl)-N,N,4-trimethyl-8-phenyl-4H-benzo[f]imidazo[1,5-a][1,4]diazepine-3-carboxamide] | 53.6 ± 7.24% | 53.6% | 2.14 ± 0.311 µM | 4.31% | 12.9% | 27.2% | -1.65% | –
2 | C#Cc1ccc2c(c1)C(c1ccccc1Cl)=N[C@H](C)c1c(C(=O)NC)ncn1-2 [Compound 21, (R)-6-(2′-Chlorophenyl)-8-ethynyl-N,4-dimethyl-4H-benzo[f]imidazo[1,5-a][1,4]diazepine-3-carboxamide] | 69.6 ± 6.01% | 69.6% | – | -12.3% | -1.39% | 1.13% | 4.88% | 0.66 ± 0.159 µM
3 | C#Cc1ccc2c(c1)C(c1ccccn1)=N[C@@H](C)c1c(C(=O)NC)ncn1-2 [Compound 23, (S)-8-Ethynyl-N,4-dimethyl-6-(pyridin-2′-yl)-4H-benzo[f]imidazo[1,5-a][1,4]diazepine-3-carboxamide] | 26.9 ± 6.21% | 26.9% | – | -13.5% | -0.12% | 50.5% | -4.27% | –
4 | C#Cc1ccc2c(c1)C(c1ccccc1Cl)=N[C@H](C)c1c(C(=O)N(C)CC)ncn1-2 [Compound 29] | 69.1 ± 29.1% | 69.1% | – | -2.22% | 19.9% | 46.2% | -1.16% | 0.392 ± 0.0788 µM
5 | C#Cc1ccc2c(c1)C(c1ccccn1)=N[C@@H](C)c1c(C(=O)N(C)C)ncn1-2 [Compound 31, (S)-8-Ethynyl-N,N,4-trimethyl-6-(pyridin-2′-yl)-4H-benzo[f]imidazo[1,5-a][1,4]diazepine-3-carboxamide] | -3.79 ± 4.99% | -3.79% | – | -9.64% | 7.52% | 56.8% | -0.84% | –
6 | C#Cc1ccc2c(c1)C(c1ccccc1F)=N[C@H](C)c1c(C(=S)N(C)C)ncn1-2 [Compound 33, (R)-8-Ethynyl-6-(2′-fluorophenyl)-N,N,4-trimethyl-4H-benzo[f]imidazo[1,5-a][1,4]diazepine-3-carbothioamide] | 53.6 ± 7.24% | 53.6% | – | 4.31% | 12.9% | 27.2% | -1.65% | 0.4 ± 0.082 µM
7 | CCc1noc(-c2ncn3c2[C@@H](C)N=C(c2ccccc2F)c2cc(-c4ccccc4)ccc2-3)n1 [Compound 35, (R)-3-Ethyl-5-(6-(2′-fluorophenyl)-4-methyl-8-phenyl-4H-benzo[f]imidazo[1,5-a][1,4]diazepin-3-yl)-1,2,4-oxadiazole] | 38 ± 1.73% | 38% | – | 8.12% | 31.6% | 15.7% | 0.7% | –
8 | CCc1noc(-c2ncn3c2[C@@H](C)N=C(c2ccccc2F)c2cc(Cl)ccc2-3)n1 [Compound 36, (R)-5-(8-Chloro-6-(2′-fluorophenyl)-4-methyl-4H-benzo[f]imidazo[1,5-a][1,4]diazepin-3-yl)-3-ethyl-1,2,4-oxadiazole] | 96.4 ± 3% | 96.4% | – | 1.53% | 1.43% | 26.6% | -1.38% | 0.104 ± 0.00758 µM
9 | CC(C)c1noc(-c2ncn3c2[C@@H](C)N=C(c2ccccc2F)c2cc(Cl)ccc2-3)n1 [Compound 37, (R)-5-(8-Chloro-6-(2′-fluorophenyl)-4-methyl-4H-benzo[f]imidazo[1,5-a][1,4]diazepin-3-yl)-3-isopropyl-1,2,4-oxadiazole] | 99.2 ± 1.75% | 99.2% | – | 12.1% | 2.74% | -19.7% | 6.16% | 0.0463 ± 0.00493 µM
10 | C[C@H]1N=C(c2ccccc2F)c2cc(Cl)ccc2-n2cnc(-c3nc(C4CC4)no3)c21 [Compound 38, (R)-5-(8-Chloro-6-(2′-fluorophenyl)-4-methyl-4H-benzo[f]imidazo[1,5-a][1,4]diazepin-3-yl)-3-cyclopropyl-1,2,4-oxadiazole] | 98.9 ± 1.6% | 98.9% | – | 11.9% | 9.93% | -18.7% | 1.67% | 0.0822 ± 0.00243 µM
11 | CCc1noc(-c2ncn3c2CN=C(c2ccccc2F)c2cc(C4CC4)ccc2-3)n1 [Compound 44, 5-(8-Cyclopropyl-6-(2′-fluorophenyl)-4H-benzo[f]imidazo[1,5-a][1,4]diazepin-3-yl)-3-ethyl-1,2,4-oxadiazole] | 96.3 ± 2.29% | 96.3% | – | 9.22% | 15.7% | 35.9% | -1.95% | 0.207 ± 0.0331 µM
12 | CCc1noc(-c2ncn3c2[C@@H](C)N=C(c2ccccc2F)c2cc(C4CC4)ccc2-3)n1 [Compound 46, (R)-5-(8-Cyclopropyl-6-(2′-fluorophenyl)-4-methyl-4H-benzo[f]imidazo[1,5-a][1,4]diazepin-3-yl)-3-ethyl-1,2,4-oxadiazole] | – | 91.3% | – | 4.98% | 11.9% | 33.1% | 4.59% | –

— PMC10303271, “Synthesis and Receptor Binding Studies of α5 GABAAR Selective Novel Imidazodiazepines Targeted for Psychiatric and Cognitive Disorders” (Molecules, 2023)
